Data on 21 compounds can be found in patent US20260297092A1, “PYRAZOLOPYRIMIDINE DERIVATIVES AS INHIBITORS OF NLRP3” (Takeda Pharmaceutical Company Limited, priority 2023, published 2026).

The subject of the first assay is NLRP3 inflammasome (IL-1β production in THP-1 cells). The experiment in a line: IL-1β TR-FRET Assay (percentage of inhibition at 300 nM, 6 μM or 10 μM). It counts as cell-based, human. To be noted: Homo sapiens, THP-1, 300 nM, LPS priming, ATP activation, read-out: IL-1β inhibitory rate at 300 nM (%). The method, then: The biological activity of the compound of Formula 1 with respect to NLRP3 was determined using the following in vitro method.
IL-1β TR-FRET Assay (reported as percentage of inhibition at 300 nM, 6 μM or 10 μM)
Monocytic THP-1 cells (ATCC: TIB-202) were maintained in accordance with the provider's instructions in RPMI media (Life Technologies, Cat #A10491-01); RPMI was supplemented with 10% heat inactivated fetal bovine serum (Corning, Cat #35-010-CV). The cells were differentiated into macrophages by the addition of 25 ng/mL IFN-γ (PeproTech, Cat #AF-300-02-100UG) for 24 hours at 37° C./5% CO2. Media was exchanged with fresh media with no FBS, and the cells were treated with 50 ng/mL LPS (priming step) (LPS-EK: Invivogen, Cat #tlrl-peklps). The cells were plated at 20,000 cells per well in 384-well flat-bottom cell culture plates (FALCON, Cat #353962) and were incubated for 24 hours at 37° C./5% CO2. Compounds were serially diluted (half log or 5-fold dilutions) with DMSO and were finally diluted with Media with no FBS. The compounds were added to the cells in 384-well plates (added in 1:3) and then the plates were incubated for 30 minutes at 37° C./5% CO2. The NLRP3 inflammasome was activated with the addition of 20 mM ATP (Sigma Cat #A3377-25G) and the cells were incubated for 2 hours at 37° C./5% CO2. At the end of the incubation period, 30 μL supernatant was transferred to another 384-well plate and mixed on a plate shaker for 1 minute. The supernatant was mixed with HTRF Antibody (Human IL1 beta kit, Cisbio, 62HIL1BPEH) in assay plates (Greiner Bio-One, Cat #784075) and the assay plates were incubated in shading box at room temperature for 16-24 hours. HTRF signal was measured by EnVision (Perkinelmer) in accordance with the manufacturer's instructions.
The percentage of inhibition at 300 nM, 6 μM or 10 μM in the IL-1βTR-FRET assay was calculated by the following formula: Percentage of inhibition=[1−(HTRF signaltest−HTRF signalLow)/(HTRF signalHigh−HTRF signalLow)]*100, where HTRF signaltest is the HTRF signal in the well to which test compound is added, HTRF signalLow is the HTRF signal in the well to which 3 μM MCC-950 is added, and the HTRF signalHigh is the HTRF signal in the well to which DMSO is added.
On the technique in general: Time-resolved FRET reads energy transfer from a long-lived donor to a nearby acceptor.
In the case of `Cc1cc(C)c(-n2cc3c(=O)[nH]c(C4(C)CCCCO4)nc3n2)c(O)c1` (stereo not shown) [Example 90, 2-(2-hydroxy-4,6-dimethylphenyl)-6-(2-methyloxan-2-yl)-2,5-dihydro-4H-pyrazolo[3,4-d]pyrimidin-4-one], the inhibition at 0.3 µM turned out to be 85%.
Same read-out and setting: the result for `Cc1ccc(-n2cc3c(=O)[nH]c(OCCC(F)(F)F)nc3n2)c(C)c1` [Example 197, 2-(2,4-dimethylphenyl)-6-(3,3,3-trifluoropropoxy)-2,5-dihydro-4H-pyrazolo [3,4-d]pyrimidin-4-one] reads 60%.
For `COCCOc1nc2nn(-c3c(C)cc(C4CC4)cc3OC(F)F)cc2c(=O)[nH]1` [Example 225, 2-[4-cyclopropyl-2-(difluoromethoxy)-6-methylphenyl]-6-(2-methoxyethoxy)-2,5-dihydro-4H-pyrazolo[3,4-d]pyrimidin-4-one], the inhibition at 0.3 µM amounted to 100%.
On to `Cc1cc(C2CC2)cc(C)c1-n1cc2c(=O)[nH]c([C@@H]3CCOC3)nc2n1` [Example 201, 2-(4-cyclopropyl-2,6-dimethylphenyl)-6-(oxolan-3-yl)-2,5-dihydro-4H-pyrazolo [3,4-d]pyrimidin-4-one], for which the inhibition at 0.3 µM turned out to be 99%.
On the same count and under the same terms, with `Cc1nc2nn(-c3c(C)cc(Br)cc3C)cc2c(=O)[nH]1` [Example 187, 2-(4-bromo-2,6-dimethylphenyl)-6-methyl-2,5-dihydro-4H-pyrazolo[3,4-d]pyrimidin-4-one] the figure was 97%; with `CCOc1nc2nn(-c3c(C)cc(Br)cc3OC(F)F)cc2c(=O)[nH]1` [Example 221, 2-[4-bromo-2-(difluoromethoxy)-6-methylphenyl]-6-ethoxy-2,5-dihydro-4H-pyrazolo[3,4-d]pyrimidin-4-one], 99%.

The same assay, now with this note: Homo sapiens, THP-1, 6 μM, LPS priming, ATP activation, read-out: IL-1β inhibitory rate at 6 μM (%).
As to `Cc1cc(C2CC2)cc(C)c1-n1cc2c(=O)[nH]c(COC3COC3)nc2n1` [Example 236, 2-(4-cyclopropyl-2,6-dimethylphenyl)-6-{[(oxetan-3-yl)oxy]methyl}-2,5-dihydro-4H-pyrazolo[3,4-d]pyrimidin-4-one], the inhibition at 6 µM is 93%.
Take `Cc1cc(C2(F)CC2)cc(C)c1-n1cc2c(=O)[nH]c(-c3ccn(C)n3)nc2n1` [Example 292, 2-[4-(1-fluorocyclopropyl)-2,6-dimethylphenyl]-6-(1-methyl-1H-pyrazol-3-yl)-2,5-dihydro-4H-pyrazolo[3,4-d]pyrimidin-4-one]: the inhibition at 6 µM came out at 101%.
`Cc1cc(C2CC2)cc(C)c1-n1cc2c(=O)[nH]c(-c3cn4c(n3)COCC4)nc2n1` [Example 264, 2-(4-cyclopropyl-2,6-dimethylphenyl)-6-(5,6-dihydro-8H-imidazo[2,1-c][1,4]oxazin-2-yl)-2,5-dihydro-4H-pyrazolo[3,4-d]pyrimidin-4-one]: the inhibition at 6 µM is 100%.
On the same count and under the same terms, the result for `Cc1cc(C2CC2)cc(C)c1-n1cc2c(=O)[nH]c(CCO)nc2n1` [Example 276, 2-(4-cyclopropyl-2,6-dimethylphenyl)-6-(2-hydroxyethyl)-2,5-dihydro-4H-pyrazolo[3,4-d]pyrimidin-4-one] reads 99%; that for `CCOc1nc2nn(-c3c(Br)cc(Br)cc3C(F)F)cc2c(=O)[nH]1` [Example 251, 2-[2,4-dibromo-6-(difluoromethyl)phenyl]-6-ethoxy-2,5-dihydro-4H-pyrazolo[3,4-d]pyrimidin-4-one], 105%.
In the case of `CCOCc1nc2nn(-c3c(F)cc(C4CC4)cc3C(F)F)cc2c(=O)[nH]1` [Example 314, 2-[4-cyclopropyl-2-(difluoromethyl)-6-fluorophenyl]-6-(ethoxymethyl)-2,5-dihydro-4H-pyrazolo[3,4-d]pyrimidin-4-one], the inhibition at 6 µM stood at 105%.
For `Cc1cc(Br)cc(C(F)F)c1-n1cc2c(=O)[nH]c(COC(F)F)nc2n1` [Example 279, 2-[4-bromo-2-(difluoromethyl)-6-methylphenyl]-6-[(difluoromethoxy)methyl]-2,5-dihydro-4H-pyrazolo[3,4-d]pyrimidin-4-one], the inhibition at 6 µM came to 100%.
On to `CO[C@H]1C[C@@H](Oc2nc3nn(-c4ccc(C)cc4C)cc3c(=O)[nH]2)C1` [Example 243, 2-(2,4-dimethylphenyl)-6-{[(1s,3s)-3-methoxycyclobutyl]oxy}-2,5-dihydro-4H-pyrazolo[3,4-d]pyrimidin-4-one], for which the inhibition at 6 µM was determined as 100%.
`CCOc1nc2nn(-c3c(Br)cc(C4CC4)cc3C(F)F)cc2c(=O)[nH]1` [Example 250, 2-[2-bromo-4-cyclopropyl-6-(difluoromethyl)phenyl]-6-ethoxy-2,5-dihydro-4H-pyrazolo[3,4-d]pyrimidin-4-one]: the inhibition at 6 µM is 103%.
Take `Cc1cc(C2CC2)cc(C)c1-n1cc2c(=O)[nH]c(C(C)(F)F)nc2n1` [Example 259, 2-(4-cyclopropyl-2,6-dimethylphenyl)-6-(1,1-difluoroethyl)-2,5-dihydro-4H-pyrazolo[3,4-d]pyrimidin-4-one]: the inhibition at 6 µM is 104%.
As to `Cc1c(Br)c(Br)cc(C(F)F)c1-n1cc2c(=O)[nH]c(COC(F)F)nc2n1` [Example 280, 2-[3,4-dibromo-6-(difluoromethyl)-2-methylphenyl]-6-[(difluoromethoxy)methyl]-2,5-dihydro-4H-pyrazolo[3,4-d]pyrimidin-4-one], the inhibition at 6 µM came out at 99%.
Turning to `Cc1cc(C2CC2)cc(C)c1-n1cc2c(=O)[nH]c(C3(C)COC3)nc2n1` [Example 315, 2-(4-cyclopropyl-2,6-dimethylphenyl)-6-(3-methyloxetan-3-yl)-2,5-dihydro-4H-pyrazolo [3,4-d]pyrimidin-4-one], the inhibition at 6 µM was 101%.
On the same count and under the same terms, with `Cc1cc(C2CC2)cc(C)c1-n1cc2c(=O)[nH]c(C3(F)CCOCC3)nc2n1` [Example 238, 2-(4-cyclopropyl-2,6-dimethylphenyl)-6-(4-fluorooxan-4-yl)-2,5-dihydro-4H-pyrazolo[3,4-d]pyrimidin-4-one] the figure was 97%.

The assay is the same for the next values; noted with them: Homo sapiens, THP-1, 10 μM, LPS priming, ATP activation, read-out: IL-1β inhibitory rate at 10 μM (%).
In the case of `Cc1cc(C2CC2)cc(C(F)F)c1-n1cc2c(=O)[nH]c([C@@H]3COCCO3)nc2n1` [Example 326, 2-[4-cyclopropyl-2-(difluoromethyl)-6-methylphenyl]-6-[(2S)-1,4-dioxan-2-yl]-2,5-dihydro-4H-pyrazolo[3,4-d]pyrimidin-4-one or 2-[4-cyclopropyl-2-(difluoromethyl)-6-methylphenyl]-6-[(2R)-1,4-dioxan-2-yl]-2,5-dihydro-4H-pyrazolo[3,4-d]pyrimidin-4-one], the inhibition at 10 µM came out at 111%.
Same read-out and setting: the result for `Cc1cc(Br)cc(C)c1-n1cc2c(=O)[nH]c([C@@H](C)C(=O)O)nc2n1` [Example 170, 2-[2-(4-bromo-2,6-dimethylphenyl)-4-oxo-4,5-dihydro-2H-pyrazolo [3,4-d]pyrimidin-6-yl]propanoic acid] reads 136%.

Another assay has as its system TNF-α (NF-κB pathway, THP-1 cells). The experiment in a line: TNF-α Assay (IC50). It counts as cell-based, human. To be noted: Homo sapiens, 600 ng/mL LPS, 3 hours. The procedure: TNF-α Assay (Reported as IC50)
Monocytic THP-1 cells (ATCC: TIB-202) were maintained in accordance with the provider's instructions in RPMI media (Life Technologies, Cat #A10491-01); RPMI was supplemented with 10% heat inactivated fetal bovine serum (Hyclone Cat #SH30396.03). The cells were differentiated into macrophages by the addition of 25 ng/mL IFN-7 for 24 hours at 37° C./5% CO2. Media was exchanged with fresh media with no FBS. The cells were plated at 40,000 cells per well in 384-well flat-bottom cell culture plates (Costar 3764) containing compounds (added in 1:1000) in a 1:3.16 serial dilution series in DMSO and were incubated for 30 minutes at 37° C./5% CO2. The NF-κB pathway was activated with the addition of 600 ng/mL LPS and the cells were incubated for 3 hours at 37° C./5% CO2. At the end of the incubation period, supernatant ([…]) was removed, and TNF-alpha were monitored using an ELISA (Human TNF-α ELISA, R&D systems, Cat #DY210) according to the manufacturer's instructions. 100% inhibition is determined with positive control, TPCA-1.
The IC50 values in the TNF-α assay were calculated from a plot of percentage of inhibition versus the inhibitor concentration by a logistics curve fit according to: Y=[Bottom+(Top−Bottom)]/(1+10^[(Log IC50−X)·Hill Slope], where Y was the […] at the inhibitor concentration, X, “Bottom” was the lowest inhibition value, i.e., 0%, “Top” was the maximum inhibition value, i.e., 100%, and the “Hill Slope” described the slope of the sigmoidal curve between the “Bottom” and “Top” values. The curve fitting was conducted with internally developed software.
In general, IC50 refers to the midpoint of a concentration-inhibition curve. The low end stands for greater potency in that assay, the high end for weaker potency in that assay. On to `Cc1cc(C)c(-n2cc3c(=O)[nH]c(C4(C)CCCCO4)nc3n2)c(O)c1` (stereo not shown) [Example 90, 2-(2-hydroxy-4,6-dimethylphenyl)-6-(2-methyloxan-2-yl)-2,5-dihydro-4H-pyrazolo[3,4-d]pyrimidin-4-one], for which the IC50 is above 30 µM.
